# Reference: publication PMC12402854 (Angewandte Chemie (International Ed. in English), 2025)
# Biological target: T1, Xeroderma pigmentosum type B (XPB) (Homo sapiens, UniProt P19447)
# T1 sequence (P19447 1-782): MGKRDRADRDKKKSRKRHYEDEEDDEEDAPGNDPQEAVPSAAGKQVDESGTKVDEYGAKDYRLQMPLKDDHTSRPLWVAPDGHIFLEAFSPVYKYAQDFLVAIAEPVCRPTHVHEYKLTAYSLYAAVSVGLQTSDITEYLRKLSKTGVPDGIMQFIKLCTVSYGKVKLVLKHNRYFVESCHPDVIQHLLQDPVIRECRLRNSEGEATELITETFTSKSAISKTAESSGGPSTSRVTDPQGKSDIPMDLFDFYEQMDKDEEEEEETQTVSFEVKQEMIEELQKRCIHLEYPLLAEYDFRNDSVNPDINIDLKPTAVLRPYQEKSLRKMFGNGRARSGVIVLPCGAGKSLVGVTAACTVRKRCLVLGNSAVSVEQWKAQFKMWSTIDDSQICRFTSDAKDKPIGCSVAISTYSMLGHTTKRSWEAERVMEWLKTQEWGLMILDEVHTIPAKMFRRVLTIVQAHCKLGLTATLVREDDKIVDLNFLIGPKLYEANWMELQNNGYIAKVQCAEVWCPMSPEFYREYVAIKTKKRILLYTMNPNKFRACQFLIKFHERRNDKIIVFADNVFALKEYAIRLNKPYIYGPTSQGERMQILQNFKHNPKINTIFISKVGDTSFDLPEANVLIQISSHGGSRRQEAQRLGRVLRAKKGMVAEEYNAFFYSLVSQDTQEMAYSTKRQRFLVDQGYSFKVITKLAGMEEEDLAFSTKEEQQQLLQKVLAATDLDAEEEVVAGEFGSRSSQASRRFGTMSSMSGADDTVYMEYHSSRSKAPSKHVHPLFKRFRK
# Assay: live-cell covalent labelling, click to TAMRA, in-gel fluorescence
# Format: cell-based
substance,measurement,value
triptolide-alkyne [TL-alk],EC50,0.0926 µM
